The text below walks through data of paper PMC6080863 (ACS Catalysis, 2018).

Substitutions are numbered along the chain they refer to.

Test [1] addresses T1, DERAm (monomeric variant of ecDERA) (Escherichia coli, UniProt P0A6L0, K58E/Y96W).
T1 sequence (P0A6L0 1-259 K58E/Y96W): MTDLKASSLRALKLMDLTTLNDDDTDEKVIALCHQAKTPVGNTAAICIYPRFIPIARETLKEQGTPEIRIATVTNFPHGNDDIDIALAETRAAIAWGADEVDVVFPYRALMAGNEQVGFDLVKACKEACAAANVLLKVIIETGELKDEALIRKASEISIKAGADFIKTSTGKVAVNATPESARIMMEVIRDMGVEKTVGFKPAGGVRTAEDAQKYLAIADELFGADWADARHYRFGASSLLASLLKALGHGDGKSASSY
The test is described as follows: 1H-15N HSQC NMR titration, chemical shift perturbation. The class given is binding.

Test [2] addresses T2, DERAm (monomeric variant of ecDERA) (Escherichia coli, UniProt P0A6L0, K58E/Y259F/Y96W).
T2 sequence (P0A6L0 1-259 K58E/Y96W/Y259F): T1 sequence (P0A6L0 1-259 K58E/Y96W) with Y259F
The description is as above. The format is binding.

The term Kd denotes the free concentration of one partner at which half of the binding sites on the other are occupied at equilibrium, for simple one-to-one binding.

With `O=P(O)(O)O` [potassium phosphate], the Kd in test [1] was determined as 18.8 ± 3.6 mM; in test [2], 17.9 ± 2.4 mM.
